Experimental data as given in ChEMBL document CHEMBL1201862, “PubChem BioAssay data set” (2004).
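Cells were grown in 96-well plates and exposed to each compound for 48 hours at five concentrations; endpoints were interpolated linearly between bracketing concentrations, or set to the highest concentration if not reached. GI50 is the concentration that inhibits growth by half.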 Activity calls are given as the source filed them. No stated cut-off is given here; in the data, active = GI50 up to about 1.1 µM and inactive = higher.

Tests used:
Experiment in all cases: DTP human tumour cell line panel, 48 h
SW-620 = system: SW-620
DMS-273 = system: DMS-273
NCI-H522 = system: NCI-H522
SNB-19 = system: SNB-19
LXFL 529 = system: LXFL 529
CAKI-1 = system: CAKI-1
HCT-15 = system: HCT-15
ACHN = system: ACHN
IGROV-1 = system: IGROV-1
HCT-116 = system: HCT-116
MOLT-4 = system: MOLT-4
M14 = system: M14
OVCAR-3 = system: OVCAR-3
OVCAR-4 = system: OVCAR-4
UACC-62 = system: UACC-62
LOX IMVI = system: LOX IMVI
BT-549 = system: BT-549
MDA-MB-231 = system: MDA-MB-231
NCI/ADR-RES = system: NCI/ADR-RES
HOP-92 = system: HOP-92

SMILES | GI50 (SW-620) | GI50 (DMS-273) | GI50 (NCI-H522) | GI50 (SNB-19) | GI50 (LXFL 529) | GI50 (CAKI-1) | GI50 (HCT-15) | GI50 (ACHN) | GI50 (IGROV-1) | GI50 (HCT-116) | GI50 (MOLT-4) | GI50 (M14) | GI50 (OVCAR-3) | GI50 (OVCAR-4) | GI50 (UACC-62) | GI50 (LOX IMVI) | GI50 (BT-549) | GI50 (MDA-MB-231) | GI50 (NCI/ADR-RES) | GI50 (HOP-92)
CC1=NNC(=O)C2CCC(=O)N12 (configuration not stated) | > 100 µM (inactive) | > 100 µM (inactive) | > 100 µM (inactive) | > 100 µM (inactive) | > 100 µM (inactive) | > 100 µM (inactive) | > 100 µM | > 100 µM (inactive) | > 100 µM (inactive) | > 100 µM (inactive) | > 100 µM (inactive) | > 100 µM (inactive) | > 100 µM (inactive) | > 100 µM (inactive) | – | – | – | – | – | –
CCCCC(C)/C=C/C(O)=C1\C(=O)O/C(=C\C(=O)O)C1=O (configuration not stated) | > 100 µM (inactive) | > 100 µM (inactive) | – | > 100 µM (inactive) | > 100 µM (inactive) | – | > 100 µM | > 100 µM (inactive) | > 100 µM (inactive) | > 100 µM (inactive) | > 100 µM (inactive) | > 100 µM (inactive) | > 100 µM (inactive) | > 100 µM (inactive) | > 100 µM (inactive) | > 100 µM (inactive) | – | – | – | –
O=C1CCC(NC(=O)c2ccccc2)C(=O)N1 (configuration not stated) | > 100 µM (inactive) | – | > 100 µM (inactive) | > 100 µM (inactive) | – | > 100 µM (inactive) | > 100 µM | > 100 µM (inactive) | > 100 µM (inactive) | > 100 µM (inactive) | 2.97 µM (inactive) | > 100 µM (inactive) | > 100 µM (inactive) | > 100 µM (inactive) | > 100 µM (inactive) | > 100 µM (inactive) | > 100 µM (inactive) | > 100 µM (inactive) | > 100 µM (inactive) | > 100 µM (inactive)
NC(CCCCCP(=O)(O)O)C(=O)O (configuration not stated) [AP-7] | > 100 µM (inactive) | – | > 100 µM (inactive) | > 100 µM (inactive) | – | > 100 µM (inactive) | > 100 µM | > 100 µM (inactive) | > 100 µM (inactive) | > 100 µM (inactive) | > 100 µM (inactive) | > 100 µM (inactive) | > 100 µM (inactive) | > 100 µM (inactive) | 80.7 µM (inactive) | > 100 µM (inactive) | > 100 µM (inactive) | > 100 µM (inactive) | > 100 µM (inactive) | > 100 µM (inactive)
COc1ccc(Nc2nc(N)c(C(=O)c3cccs3)s2)cc1 | 5.45 µM (inactive) | – | 5.09 µM (inactive) | 11 µM (inactive) | – | 5 µM (inactive) | 3.11 µM | 12.2 µM (inactive) | 4.43 µM (inactive) | 3.22 µM (inactive) | 2.51 µM (inactive) | 13.4 µM (inactive) | 3.47 µM (inactive) | 9.73 µM (inactive) | 11.3 µM (inactive) | 6.67 µM (inactive) | 23.3 µM (inactive) | 26.2 µM (inactive) | 10.7 µM (inactive) | 21.1 µM (inactive)
CCOC(=O)C1C(=O)C=C(c2cc(C)ccc2O)CC1c1cccc(Cl)c1 (configuration not stated) | 29 µM (inactive) | – | 12.4 µM (inactive) | 19.6 µM (inactive) | – | 30.7 µM (inactive) | 3.13 µM | 19.7 µM (inactive) | 13.6 µM (inactive) | 34 µM (inactive) | 22.6 µM (inactive) | 30.1 µM (inactive) | 32 µM (inactive) | 17.5 µM (inactive) | 13.9 µM (inactive) | 24.2 µM (inactive) | 44.6 µM (inactive) | 23.9 µM (inactive) | 17.5 µM (inactive) | 13.5 µM (inactive)
CCc1nc2cc3cccnc3c(Cl)c2[nH]c1=O | > 100 µM (inactive) | – | > 100 µM (inactive) | 58.3 µM (inactive) | – | 75.7 µM (inactive) | > 100 µM | 78.7 µM (inactive) | 71 µM (inactive) | > 100 µM (inactive) | > 100 µM (inactive) | > 100 µM (inactive) | > 100 µM (inactive) | > 100 µM (inactive) | > 100 µM (inactive) | > 100 µM (inactive) | 65.9 µM (inactive) | > 100 µM (inactive) | 79.1 µM (inactive) | 49.2 µM (inactive)
COc1ccc2[nH]c3c(C)c4cc[n+](COC(=O)c5ccccc5)cc4c(C)c3c2c1 | 0.0668 µM (active) | – | 0.391 µM (active) | 0.713 µM (active) | 0.148 µM (active) | 0.569 µM (active) | – | 0.101 µM (active) | 0.158 µM (active) | 0.0378 µM (active) | 0.0379 µM (active) | 0.641 µM (active) | 1.48 µM (inactive) | 0.168 µM (active) | 1.09 µM (active) | 0.21 µM (active) | – | – | – | 0.375 µM (active)
COc1ccc(C2COc3c(ccc(O)c3C)C2)cc1OC (configuration not stated) | 81.3 µM (inactive) | 57.4 µM (inactive) | 39.7 µM (inactive) | 143 µM (inactive) | – | 112 µM (inactive) | 57.8 µM | – | 130 µM (inactive) | 48.3 µM (inactive) | 29.2 µM (inactive) | – | 70.1 µM (inactive) | 89.3 µM (inactive) | 96.2 µM (inactive) | 12.9 µM (inactive) | – | – | 110 µM (inactive) | 53.5 µM (inactive)
CC(=O)c1ccc(NCN2C(=O)c3ccccc3C2=O)cc1 | > 100 µM (inactive) | – | 97.5 µM (inactive) | > 100 µM (inactive) | – | > 100 µM (inactive) | > 100 µM | > 100 µM (inactive) | > 100 µM (inactive) | > 100 µM (inactive) | > 100 µM (inactive) | > 100 µM (inactive) | > 100 µM (inactive) | > 100 µM (inactive) | > 100 µM (inactive) | > 100 µM (inactive) | > 100 µM (inactive) | > 100 µM (inactive) | > 100 µM (inactive) | > 100 µM (inactive)
C=C1CC(C)(COc2ccc3ccc(=O)oc3c2)OC1=O (configuration not stated) | 0.822 µM (active) | – | 0.733 µM (active) | 18.7 µM (inactive) | – | 2.03 µM (inactive) | 2.61 µM | 3.46 µM (inactive) | 2.93 µM (inactive) | 1.14 µM (inactive) | 1.18 µM (inactive) | 1.14 µM (inactive) | 3.72 µM (inactive) | 2.84 µM (inactive) | 2.94 µM (inactive) | 1.35 µM (inactive) | 1.02 µM (active) | 8.28 µM (inactive) | 1.04 µM (active) | 1.12 µM (inactive)
O=C1CCc2ccc3c(c21)CC1(Cc2ccccc2C1)C3 | 4.47 µM (inactive) | – | 10.2 µM (inactive) | 23.1 µM (inactive) | – | 5.24 µM (inactive) | 4.67 µM | 5.27 µM (inactive) | 13.3 µM (inactive) | 3.98 µM (inactive) | 3.8 µM (inactive) | 4.73 µM (inactive) | 4.01 µM (inactive) | 10.5 µM (inactive) | 7.1 µM (inactive) | 2.59 µM (inactive) | 10 µM (inactive) | 4.45 µM (inactive) | 5.5 µM (inactive) | 5.96 µM (inactive)
C=C1C(=O)O[C@@H]2OC3(C)CCC4C(C)CCC1C42OO3 (some centres not stated) | 3.05 µM (inactive) | 3.41 µM (inactive) | 1.7 µM (inactive) | 14.7 µM (inactive) | – | 2.36 µM (inactive) | 1.87 µM | – | 3.58 µM (inactive) | 1.53 µM (inactive) | 1.52 µM (inactive) | – | 3.41 µM (inactive) | 12.6 µM (inactive) | 2.07 µM (inactive) | 2.36 µM (inactive) | – | – | 2.42 µM (inactive) | 1.85 µM (inactive)
O=C1c2cccnc2-c2nccc3c2c1nc1ccccc13 [ASCIDIDEMIN] | 0.0705 µM (active) | – | 0.0975 µM (active) | 0.281 µM (active) | – | 0.215 µM (active) | 0.037 µM | 0.0371 µM (active) | 0.31 µM (active) | 0.0352 µM (active) | 0.692 µM (active) | 0.0466 µM (active) | 0.0318 µM (active) | 1.03 µM (active) | 0.224 µM (active) | 0.0512 µM (active) | 0.169 µM (active) | 0.188 µM (active) | 0.0551 µM (active) | 0.49 µM (active)
CN(C)CCNC(=O)c1cccc2ccc(-c3ccc(Br)cc3)nc12 | 1.17 µM (inactive) | 1.16 µM (inactive) | 1.6 µM (inactive) | 4.14 µM (inactive) | – | 1.3 µM (inactive) | 2.78 µM | – | 2.96 µM (inactive) | 1.23 µM (inactive) | 0.333 µM (active) | – | 3.27 µM (inactive) | 2.76 µM (inactive) | 1.8 µM (inactive) | 1.64 µM (inactive) | – | – | 1.8 µM (inactive) | 2.49 µM (inactive)
CC(=O)OCC1OC(n2cc(F)c(=O)[nH]c2=O)C(OC(C)=O)C1OC(C)=O (configuration not stated) | 9.86 µM (inactive) | – | 16.6 µM (inactive) | 30.8 µM (inactive) | 4.31 µM (inactive) | 25.9 µM (inactive) | 13.7 µM | 12.9 µM (inactive) | 52.4 µM (inactive) | 4.25 µM (inactive) | 4.13 µM (inactive) | 48.9 µM (inactive) | 23.3 µM (inactive) | 30.3 µM (inactive) | 17.5 µM (inactive) | 5.9 µM (inactive) | 68.5 µM (inactive) | 34.6 µM (inactive) | 37.4 µM (inactive) | 16.7 µM (inactive)
CC(=O)OC(C)(C)CCC(=O)[C@](C)(O)[C@H]1[C@H](O)C[C@@]2(C)[C@@H]3CC=C4C(C)=C(OC5OC(CO)C(O)C(O)C5O)C(=O)C[C@@H]4[C@]3(C)C(=O)C[C@]12C (some centres not stated) | > 100 µM (inactive) | – | > 100 µM (inactive) | > 100 µM (inactive) | – | > 100 µM (inactive) | > 100 µM | > 100 µM (inactive) | > 100 µM (inactive) | > 100 µM (inactive) | > 100 µM (inactive) | > 100 µM (inactive) | > 100 µM (inactive) | > 100 µM (inactive) | > 100 µM (inactive) | > 100 µM (inactive) | > 100 µM (inactive) | > 100 µM (inactive) | > 100 µM (inactive) | > 100 µM (inactive)
